Species on record: Rattus norvegicus
Assay: Open TG-GATES - Regimen: Daily Repeat
Format: toxicity, organism-based, Sprague-Dawley
Parameters: regimen Daily Repeat, gender Male, age 6 weeks
Details: in vivo, po, 20 mg/kg, route gavage, dose level Middle; for APTT / Bas / Eos / Fbg / Hb / Ht / Lym / MCH / MCHC / MCV / Mono / Neu / PT / Plat / RBC / Ret / WBC: tissue Blood; for KIDNEY_L / KIDNEY_R / KIDNEY_TOTAL: tissue Kidney; for LIVER: tissue Liver; for A/G / ALP / ALT / AST / BUN / CRE / Ca / Cl / DBIL / GLC / IP / K / LDH / Na / PL / RALB / TBIL / TC / TG / TP / gamma-GTP: tissue Plasma

CC(C)NNC(=O)c1ccncc1 [IPRONIAZID]
TERMINAL_BW (72 h, time 3 day): 194.3 g
APTT (72 h, time 3 day): 22.2 s
Bas (72 h, time 3 day): 0%
Eos (72 h, time 3 day): 1%
Fbg (72 h, time 3 day): 299.2 mg/dL
Hb (72 h, time 3 day): 14.1 g/dL
Ht (72 h, time 3 day): 40.8%
Lym (72 h, time 3 day): 78.8%
MCH (72 h, time 3 day): 20.7 pg
MCHC (72 h, time 3 day): 34.6%
MCV (72 h, time 3 day): 59.9 fL
Mono (72 h, time 3 day): 2.4%
Neu (72 h, time 3 day): 17.6%
PT (72 h, time 3 day): 16.5 s
Plat (72 h, time 3 day): 134 x10_4/uL
RBC (72 h, time 3 day): 682.6 x10_4/ul
Ret (72 h, time 3 day): 5.9%
WBC (72 h, time 3 day): 72.4 x10_2/uL
KIDNEY_L (72 h, time 3 day): 0.8 g
KIDNEY_R (72 h, time 3 day): 0.9 g
KIDNEY_TOTAL (72 h, time 3 day): 1.7 g
LIVER (72 h, time 3 day): 8.7 g
A/G (72 h, time 3 day): 1.2
ALP (72 h, time 3 day): 1696.2 IU/L
ALT (72 h, time 3 day): 42 IU/L
AST (72 h, time 3 day): 74 IU/L
BUN (72 h, time 3 day): 19.2 mg/dL
CRE (72 h, time 3 day): 0.2 mg/dL
Ca (72 h, time 3 day): 10.5 mg/dL
Cl (72 h, time 3 day): 108.2 meq/L
DBIL (72 h, time 3 day): 0.002 mg/dL
GLC (72 h, time 3 day): 175 mg/dL
IP (72 h, time 3 day): 7.1 mg/dL
K (72 h, time 3 day): 4.4 meq/L
LDH (72 h, time 3 day): 262 IU/L
Na (72 h, time 3 day): 143.2 meq/L
PL (72 h, time 3 day): 150.8 mg/dL
RALB (72 h, time 3 day): 3.3 g/dL
TBIL (72 h, time 3 day): 0.01 mg/dL
TC (72 h, time 3 day): 80.6 mg/dL
TG (72 h, time 3 day): 105.2 mg/dL
TP (72 h, time 3 day): 5.9 g/dL
gamma-GTP (72 h, time 3 day): 1 IU/L
TERMINAL_BW ([…], time 7 day): 222.7 g
TERMINAL_BW ([…], time 14 day): 259.4 g
TERMINAL_BW ([…], time 28 day): 331.2 g
APTT ([…], time 7 day): 22.7 s
Bas ([…], time 7 day): 0%
Eos ([…], time 7 day): 1%
Fbg ([…], time 7 day): 311.4 mg/dL
Hb ([…], time 7 day): 13.3 g/dL
Ht ([…], time 7 day): 37.6%
Lym ([…], time 7 day): 82.2%
MCH ([…], time 7 day): 20.5 pg
MCHC ([…], time 7 day): 35.4%
MCV ([…], time 7 day): 57.8 fL
Mono ([…], time 7 day): 1.8%
Neu ([…], time 7 day): 13.8%
PT ([…], time 7 day): 15.4 s
Plat ([…], time 7 day): 122.6 x10_4/uL
RBC ([…], time 7 day): 651.6 x10_4/ul
Ret ([…], time 7 day): 4.2%
WBC ([…], time 7 day): 73.7 x10_2/uL
APTT ([…], time 14 day): 20.5 s
Bas ([…], time 14 day): 0%
Eos ([…], time 14 day): 0.6%
Fbg ([…], time 14 day): 320.6 mg/dL
Hb ([…], time 14 day): 12.5 g/dL
Ht ([…], time 14 day): 36.8%
Lym ([…], time 14 day): 76%
MCH ([…], time 14 day): 19.9 pg
MCHC ([…], time 14 day): 34%
MCV ([…], time 14 day): 58.7 fL
Mono ([…], time 14 day): 2.2%
Neu ([…], time 14 day): 20.4%
PT ([…], time 14 day): 16.1 s
Plat ([…], time 14 day): 122.7 x10_4/uL
RBC ([…], time 14 day): 628 x10_4/ul
Ret ([…], time 14 day): 8.9%
WBC ([…], time 14 day): 105.3 x10_2/uL
APTT ([…], time 28 day): 24 s
Bas ([…], time 28 day): 0%
Eos ([…], time 28 day): 1%
Fbg ([…], time 28 day): 313.2 mg/dL
Hb ([…], time 28 day): 13.5 g/dL
Ht ([…], time 28 day): 39%
Lym ([…], time 28 day): 80.8%
MCH ([…], time 28 day): 20.6 pg
MCHC ([…], time 28 day): 34.5%
MCV ([…], time 28 day): 59.6 fL
Mono ([…], time 28 day): 1.2%
Neu ([…], time 28 day): 16.6%
PT ([…], time 28 day): 16.3 s
Plat ([…], time 28 day): 108.1 x10_4/uL
RBC ([…], time 28 day): 654.8 x10_4/ul
Ret ([…], time 28 day): 6.7%
WBC ([…], time 28 day): 133.5 x10_2/uL
KIDNEY_L ([…], time 7 day): 0.9 g
KIDNEY_R ([…], time 7 day): 0.9 g
KIDNEY_TOTAL ([…], time 7 day): 1.8 g
KIDNEY_L ([…], time 14 day): 1 g
KIDNEY_R ([…], time 14 day): 1 g
KIDNEY_TOTAL ([…], time 14 day): 2.1 g
KIDNEY_L ([…], time 28 day): 1.2 g
KIDNEY_R ([…], time 28 day): 1.2 g
KIDNEY_TOTAL ([…], time 28 day): 2.4 g
LIVER ([…], time 7 day): 9.4 g
LIVER ([…], time 14 day): 10.8 g
LIVER ([…], time 28 day): 12.6 g
A/G ([…], time 7 day): 1.2
ALP ([…], time 7 day): 1298.6 IU/L
ALT ([…], time 7 day): 36.2 IU/L
AST ([…], time 7 day): 75 IU/L
BUN ([…], time 7 day): 18.6 mg/dL
CRE ([…], time 7 day): 0.2 mg/dL
Ca ([…], time 7 day): 10.4 mg/dL
Cl ([…], time 7 day): 107.6 meq/L
DBIL ([…], time 7 day): 0.004 mg/dL
GLC ([…], time 7 day): 179.4 mg/dL
IP ([…], time 7 day): 6.6 mg/dL
K ([…], time 7 day): 4.2 meq/L
LDH ([…], time 7 day): 206.4 IU/L
Na ([…], time 7 day): 142.2 meq/L
PL ([…], time 7 day): 154.8 mg/dL
RALB ([…], time 7 day): 3.1 g/dL
TBIL ([…], time 7 day): 0.006 mg/dL
TC ([…], time 7 day): 88.6 mg/dL
TG ([…], time 7 day): 89 mg/dL
TP ([…], time 7 day): 5.7 g/dL
gamma-GTP ([…], time 7 day): 1.4 IU/L
A/G ([…], time 14 day): 1.1
ALP ([…], time 14 day): 1067 IU/L
ALT ([…], time 14 day): 40.2 IU/L
AST ([…], time 14 day): 70.8 IU/L
BUN ([…], time 14 day): 18.2 mg/dL
CRE ([…], time 14 day): 0.2 mg/dL
Ca ([…], time 14 day): 10.4 mg/dL
Cl ([…], time 14 day): 106.6 meq/L
DBIL ([…], time 14 day): 0.004 mg/dL
GLC ([…], time 14 day): 182.6 mg/dL
IP ([…], time 14 day): 6.7 mg/dL
K ([…], time 14 day): 4.3 meq/L
LDH ([…], time 14 day): 154.6 IU/L
Na ([…], time 14 day): 142.2 meq/L
PL ([…], time 14 day): 153.8 mg/dL
RALB ([…], time 14 day): 3 g/dL
TBIL ([…], time 14 day): 0.026 mg/dL
TC ([…], time 14 day): 85 mg/dL
TG ([…], time 14 day): 118.6 mg/dL
TP ([…], time 14 day): 5.7 g/dL
gamma-GTP ([…], time 14 day): 1.8 IU/L
A/G ([…], time 28 day): 1.1
ALP ([…], time 28 day): 1143.8 IU/L
ALT ([…], time 28 day): 37.2 IU/L
AST ([…], time 28 day): 68 IU/L
BUN ([…], time 28 day): 17.4 mg/dL
CRE ([…], time 28 day): 0.2 mg/dL
Ca ([…], time 28 day): 10.4 mg/dL
Cl ([…], time 28 day): 106.2 meq/L
DBIL ([…], time 28 day): 0 mg/dL
GLC ([…], time 28 day): 184.2 mg/dL
IP ([…], time 28 day): 6.9 mg/dL
K ([…], time 28 day): 4.2 meq/L
LDH ([…], time 28 day): 157.6 IU/L
Na ([…], time 28 day): 141.8 meq/L
PL ([…], time 28 day): 138.4 mg/dL
RALB ([…], time 28 day): 3.1 g/dL
TBIL ([…], time 28 day): 0.038 mg/dL
TC ([…], time 28 day): 68.4 mg/dL
TG ([…], time 28 day): 122.6 mg/dL
TP ([…], time 28 day): 5.9 g/dL
gamma-GTP ([…], time 28 day): 2.2 IU/L

Source: ChEMBL document CHEMBL3885861, “Open TG-GATES”
